Format in all cases: in vivo, rat
Assay [1] relates to Sprague-Dawley rats. In words: Muscle pressure pain threshold value after reserpine single administration. The following applies: reserpine 3 mg/kg single s.c. The procedure: Male Sprague-Dawley rats (Japan SLC, Hamamatsu, Japan) were used. Measurement of muscle pressure pain threshold value was carried out in the same manner as in Example 1. That is, a pressure stimulus of gradually increasing to 250 g at the maximum was added to the right hind leg gastrocnemius muscle of each rat. […] The measurement was carried out 3 times at each point of time of the measurement, and the average was used as the measurement value.
Influences of the reserpine single administration upon the muscle pressure pain threshold value, skin pain sensation threshold value, cold sensitivity and heat sensitivity were examined in accordance with the following protocol. […] The muscle pressure pain threshold value, skin pain sensation threshold value, cold sensitivity and heat sensitivity before the reserpine treatment (base lines) were measured and then they were divided into a solvent (0.5% acetic acid aqueous solution) group and a reserpine (3 mg/kg) group (the number of animals per group was 6). […] The muscle pressure pain threshold value, skin pain sensation threshold value, cold sensitivity and heat sensitivity of each rat were measured at the points of measurement time of acute phase after administration of the solvent or reserpine (2, 4, 8 and 24 hours) and chronic phase (2, 3, 5, 7, 10, 14 and 21 days).
(§1) All of the measured values were expressed as average value±standard error. […]

The subject of assay [2] is Sprague-Dawley rats. Description: Heat sensitivity (Hargreaves method) after reserpine single administration. The conditions noted are these: reserpine 3 mg/kg single s.c. The procedure: Measurement of the heat sensitivity was carried out by the method of Hargreaves et al. (Hargreaves et al., Pain, 32, 77-88, 1988). A transparent measuring box was put on a glass plate supported with platforms and a rat was put therein and acclimatized. A mobile infrared heat source was arranged under the glass plate and focused on the plantar surface of the right hind paw of the rat. A latency time required for the rat to show a withdrawal reaction of right hind leg from the heat source was measured as a withdrawal latency time and used as the index of heat sensitivity. According to this measuring system, shorter withdrawal latency time represents acceleration of the skin heat sensitivity.
Influences of the reserpine single administration upon the muscle pressure pain threshold value, skin pain sensation threshold value, cold sensitivity and heat sensitivity were examined in accordance with the following protocol. A total of 12 male rats were used. The muscle pressure pain threshold value, skin pain sensation threshold value, cold sensitivity and heat sensitivity before the reserpine treatment (base lines) were measured and then they were divided into a solvent (0.5% acetic acid aqueous solution) group and a reserpine (3 mg/kg) group (the number of animals per group was 6). […]
as §1

Assay [3] concerns Sprague-Dawley rats. In words: Cold sensitivity (acetone method) after reserpine single administration. The following applies: reserpine 3 mg/kg single s.c. The protocol:
Measurement of cold sensitivity was carried out in accordance with the method of Choi et al. (Choi et al., Pain, 59, 369-376, 1994). After adaptation of each rat to a wire mesh bottom cage for measurement, 50 μl of acetone was sprayed to the plantar surface of the right hind paw of the rat using a syringe for insulin injection. The number of reactions of the right hind paw (flinching, lifting and leg licking) occurred during 1 minute just after the spraying was measured and used as the index of cold sensitivity. At each point of time of the measurement, the acetone spraying was carried out 3 times at 5 minute intervals and the average was used as the measured vale. […]
Influences of the reserpine single administration upon the muscle pressure pain threshold value, skin pain sensation threshold value, cold sensitivity and heat sensitivity were examined in accordance with the following protocol. […] The muscle pressure pain threshold value, skin pain sensation threshold value, cold sensitivity and heat sensitivity before the reserpine treatment (base lines) were measured and then they were divided into a solvent (0.5% acetic acid aqueous solution) group and a reserpine (3 mg/kg) group (the number of animals per group was 6). […]
as §1

In assay [4] the test system is Sprague-Dawley rats. In words: Muscle pressure pain threshold value after repeated administration of reserpine. The following applies: for time after reserpine final administration until which muscle pressure pain threshold value was statistically significantly low vs solvent group: reserpine 1 mg/kg s.c. once a day for 3 days. The protocol:
Measurement of muscle pressure pain threshold value was carried out in accordance with the method of Schafers et al. (Schafers M. et al., Pain, 104, 579-588, 2003). A pressure stimulus of gradually increasing to 250 g at the maximum was added to the rat right hind leg gastrocnemius muscle. […] The measurement was carried out 3 times at each point of time of the measurement, and the average was used as the measurement value. Measurement of the skin pain sensation threshold value was carried out in accordance with the method of Chaplan et al. (Chaplan et al., J. Neurosci. Methods, 53, 55-63, 1994). This was measured using a series of von Frey filaments having different diameters which may add a constant pressure. […] The von Frey filament was applied using the up and down method. That is, by firstly applying a filament of middle diameter, a filament having one rank smaller diameter was applied when the withdrawal reaction was observed or a filament having one rank larger diameter was applied when the withdrawal reaction was not observed. The skin pain sensation threshold value at each point of time of the measurement was calculated as a hind paw withdrawal reaction threshold value (g) using the calculation formula reported by Chaplan et al. (Chaplan et al., described above). Influences of reserpine upon the muscle pressure pain threshold value and skin pain sensation threshold value were examined by the following protocol. A total of 24 animals for each of male and female rats were used. After measuring muscle pressure pain threshold value and skin pain sensation threshold value before the reserpine treatment (base line), they were divided based on the reserpine administration doses into a solvent (0.5% acetic acid aqueous solution) group, a reserpine 0.1 mg/kg group, a 0.3 mg/kg group and a 1 mg/kg group (the number of animals per one group was 6). The solvent or reserpine was subcutaneously administered on the back of the rats of each group once a day for 3 days. All of the administration volume of the solvent or reserpine was set to 1 ml per 1 kg body weight of each animal. After final administration of the solvent or reserpine, the muscle pressure pain threshold value and skin pain sensation threshold value of each rat were measured 1, 3, 5, 7, 10, 14 and 21 days thereafter.
All of the measured values were expressed as average value±standard error. Statistical significance test of the measured values between the reserpine administration groups and the solvent administration group at each point of time was carried out by a two-way analysis of variance and the Bonferroni method. Probability value (P) of less than 5% was judged as statistically significant (P<0.05 was expressed as * in the graphs).

Turning to `COC(=O)[C@H]1[C@H]2C[C@@H]3c4[nH]c5cc(OC)ccc5c4CCN3C[C@H]2C[C@@H](OC(=O)c2cc(OC)c(OC)c(OC)c2)[C@@H]1OC` [reserpine], the “muscle pressure pain threshold value” in assay [1] (after 2, 3, 5, 7 and 10 days) is “significantly reduced”; in assay [1] (after 2, 4, 8 and 24 hours) it was “significantly increased”; in assay [4] (male and female rats, reserpine 0.1, 0.3, 1 mg/kg s.c. once a day for 3 days, two-way analysis of variance vs solvent), “significantly reduced”; in assay [4] (reserpine 1 mg/kg group, s.c. once a day for 3 days), “markedly reduced”. The “time after administration at which transient acute-phase acceleration of heat sensitivity recovers” value in assay [2] worked out at 8 h. Besides, the “heat sensitivity: withdrawal latency time” value in assay [2] (2 and 4 hours and 2 and 5 days after administration) was “significantly shortened”. In addition, the “cold sensitivity: number of reactions” value in assay [3] (after 2, 3, 5, 7 and 10 days) is “significantly increased”; in assay [3] (within 24 hours after administration), “did not show significant increase”. The “time after reserpine final administration until which muscle pressure pain threshold value was statistically significantly low vs solvent group” value in assay [4] (female rats) came out at 7 days; in assay [4] (male rats), 10 days. In addition, in assay [4] (reserpine administered to a mammal (summary statement)), the “duration of chronic muscle pain and chronic tactile allodynia after administration” value was not below 1 week.

For the origin of these results see US8795632B2, “Disease animal model for chronic pain” (Astellas Pharma Inc., priority 2008, dated 2014).
